Data: ChEMBL document CHEMBL1629484, “1,2-diamino-ethane-substituted-6,7,8,9-tetrahydro-5H-pyrimido[4,5-d]azepines as TRPV1 antagonists with improved properties” (Bioorg Med Chem Lett, 2010)
Values after ≈ are worked out from the molar mass of the structure shown. Active and inactive are the calls of the source. The rule behind the calls is not given here.

Assays:
Rattus norvegicus [1] = assay: Analgesic activity against carrageenan-induced thermal hyperalgesia in rat assessed as maximal possible effect at 30 mg/kg, po administered 3 hrs post-carrageenan challenge; type: functional
Rattus norvegicus [2] = assay: Analgesic activity against carrageenan-induced thermal hyperalgesia in rat at 5 mg/kg, po administered 1 hr before carrageenan challenge; type: functional, organism-based; set-up: dose 5 mg/kg
[3] = molecular target: T1, Transient receptor potential cation channel subfamily V member 1 (Rattus norvegicus, UniProt O35433); assay: Displacement of [3H]RTX from rat TRPV1 expressed in HEK cells; type: cell-based, HEK293
T1 sequence (O35433 whole entry): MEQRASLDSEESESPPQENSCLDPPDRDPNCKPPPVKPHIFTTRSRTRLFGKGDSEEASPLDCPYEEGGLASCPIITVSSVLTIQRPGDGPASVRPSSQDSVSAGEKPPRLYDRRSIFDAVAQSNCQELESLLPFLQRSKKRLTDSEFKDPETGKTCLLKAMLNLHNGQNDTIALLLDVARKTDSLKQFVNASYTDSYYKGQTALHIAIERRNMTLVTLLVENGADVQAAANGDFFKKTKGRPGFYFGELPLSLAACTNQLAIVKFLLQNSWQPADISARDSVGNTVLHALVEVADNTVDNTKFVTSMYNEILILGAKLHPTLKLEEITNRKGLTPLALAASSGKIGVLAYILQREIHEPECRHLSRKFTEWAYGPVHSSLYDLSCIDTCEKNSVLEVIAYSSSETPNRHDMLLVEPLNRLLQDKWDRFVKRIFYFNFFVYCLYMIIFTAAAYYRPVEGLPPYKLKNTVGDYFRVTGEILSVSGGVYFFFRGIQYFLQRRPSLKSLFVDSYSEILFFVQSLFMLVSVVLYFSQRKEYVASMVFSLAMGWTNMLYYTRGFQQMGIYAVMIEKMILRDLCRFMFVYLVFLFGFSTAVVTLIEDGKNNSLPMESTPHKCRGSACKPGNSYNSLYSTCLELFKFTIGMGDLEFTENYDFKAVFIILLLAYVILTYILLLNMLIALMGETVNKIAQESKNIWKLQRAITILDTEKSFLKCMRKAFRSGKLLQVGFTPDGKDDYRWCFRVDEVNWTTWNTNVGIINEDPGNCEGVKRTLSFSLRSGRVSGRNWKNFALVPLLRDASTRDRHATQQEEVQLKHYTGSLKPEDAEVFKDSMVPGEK

[4] = molecular target: T1, Transient receptor potential cation channel subfamily V member 1; assay: Inhibition of rat TRPV1 expressed in HEK cells; type: cell-based, HEK293
[5] = molecular target: T2, Transient receptor potential cation channel subfamily V member 1 (Homo sapiens, UniProt Q8NER1); assay: Inhibition of human TRPV1 expressed in HEK cells; type: cell-based, HEK293
T2 sequence (Q8NER1 whole entry): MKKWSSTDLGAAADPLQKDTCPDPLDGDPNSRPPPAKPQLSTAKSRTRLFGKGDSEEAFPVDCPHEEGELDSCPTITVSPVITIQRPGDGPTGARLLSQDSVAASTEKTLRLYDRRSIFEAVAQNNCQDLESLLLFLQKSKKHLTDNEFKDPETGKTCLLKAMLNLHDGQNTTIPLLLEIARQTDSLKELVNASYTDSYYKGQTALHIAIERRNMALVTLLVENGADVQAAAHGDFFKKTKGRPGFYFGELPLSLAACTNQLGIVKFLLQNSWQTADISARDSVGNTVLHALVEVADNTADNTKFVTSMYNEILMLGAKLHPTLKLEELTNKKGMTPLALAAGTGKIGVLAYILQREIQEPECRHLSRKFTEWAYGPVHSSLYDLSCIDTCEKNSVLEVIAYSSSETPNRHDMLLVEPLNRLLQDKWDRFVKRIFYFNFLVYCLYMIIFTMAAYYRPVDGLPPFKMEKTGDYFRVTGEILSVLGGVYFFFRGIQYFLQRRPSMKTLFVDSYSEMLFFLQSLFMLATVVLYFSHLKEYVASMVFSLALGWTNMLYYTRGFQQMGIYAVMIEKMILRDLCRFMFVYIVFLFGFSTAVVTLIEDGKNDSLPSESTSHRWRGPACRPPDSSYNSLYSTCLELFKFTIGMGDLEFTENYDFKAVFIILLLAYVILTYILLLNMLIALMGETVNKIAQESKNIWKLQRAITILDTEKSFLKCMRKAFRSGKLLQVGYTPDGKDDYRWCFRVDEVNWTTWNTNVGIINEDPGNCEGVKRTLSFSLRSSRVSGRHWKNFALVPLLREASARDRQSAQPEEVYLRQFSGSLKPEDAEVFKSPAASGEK

[6] = Oral bioavailability in fasted Sprague-Dawley rat at 2 mg/kg; type: ADME, organism-based; settings: in vivo
[7] = Tmax in fasted Sprague-Dawley rat at 2 mg/kg, po; type: ADME, organism-based; set-up: dose 2 mg/kg, route oral; settings: in vivo
[8] = AUC (infinity) in fasted Sprague-Dawley rat at 2 mg/kg, po; type: ADME, organism-based; set-up: time infinity, dose 2 mg/kg, route oral; settings: plasma
[9] = Cmax in fasted Sprague-Dawley rat at 2 mg/kg, po; type: ADME, organism-based; set-up: dose 2 mg/kg, route oral; settings: in vivo
[10] = Half life in fasted Sprague-Dawley rat at 0.5 mg/kg, iv and 2 mg/kg, po; type: ADME, organism-based; settings: in vivo
[11] = Volume of distribution at steady state in fasted Sprague-Dawley rat at 0.5 mg/kg, iv and 2 mg/kg, po; type: ADME, organism-based; settings: in vivo, read-out: Vdss
[12] = Clearance in fasted Sprague-Dawley rat at 0.5 mg/kg, iv and 2 mg/kg, po; type: ADME, organism-based; settings: in vivo
[13] = Aqueous equilibrium solubility of compound in simulated intestinal fluid at pH 6.8; type: physicochemical
[14] = Aqueous equilibrium solubility of compound in phosphate buffer at pH 2; type: physicochemical
[15] = molecular target: T1, Transient receptor potential cation channel subfamily V member 1; assay: Antagonist activity at rat TRPV1 expressed in HEK293 cells assessed as inhibition of capsaicin-induced intracellular Ca2+ level by FLIPR assay; type: functional, cell-based
[16] = molecular target: T2, Transient receptor potential cation channel subfamily V member 1; assay: Antagonist activity at human TRPV1 expressed in HEK293 cells assessed as inhibition of capsaicin-induced intracellular Ca2+ level by FLIPR assay; type: functional, cell-based
[17] = Terminal plasma concentration in rat at 5 mg/kg, po administered 5 hrs post-carrageenan challenge; type: ADME, organism-based; set-up: dose 5 mg/kg, route oral; settings: read-out: Cp(T)
[18] = Terminal plasma concentration in rat at 30 mg/kg, po administered 5 hrs post-carrageenan challenge; type: ADME, organism-based; set-up: dose 30 mg/kg, route oral; settings: read-out: Cp(T)
[19] = Clearance in rat; type: ADME, organism-based; settings: in vivo

Row | SMILES | solubility thermodynamic [13] | solubility thermodynamic [14] | IC50 [15] | IC50 [16] | further results
1 | CC(C)CN1CCN(c2nc3c(c(Nc4ccc(C(F)(F)F)cc4)n2)CCN(c2ncccc2C(F)(F)F)CC3)CC1 | 11 µg/mL (≈ 18.5 µM) | > 237 µg/mL | 89 nM | 11 nM | Activity (Rattus norvegicus [1]): 100%; Activity (Rattus norvegicus [2]): Active; IC50 [3]: 330 nM; IC50 [4]: 63 nM; IC50 [5]: 67 nM; bioavailability [6]: 21%; Tmax [7]: 2.3 h; AUC(0-inf) [8]: 598 ng·h/mL; Cmax [9]: 300 nM; half-life [10]: 1.8 h; Vd [11]: 0.5 L/kg; clearance [12]: 11.7 mL/min/kg; concentration at 5 h [17]: 277 nM; concentration at 5 h [18]: 1050 nM
2 | CC(C)(C)OC(=O)N1CCCC(Nc2nc3c(c(Nc4ccc(C(F)(F)F)cc4)n2)CCN(c2ncccc2C(F)(F)F)CC3)C1 (stereo not drawn) | 14 µg/mL (≈ 21.5 µM) | 1 µg/mL (≈ 1.53 µM) | 239 nM | 140 nM | –
3 | CC(=O)NC1CCN(c2nc3c(c(Nc4ccc(C(F)(F)F)cc4)n2)CCN(c2ncccc2C(F)(F)F)CC3)C1 (stereo not drawn) | 19 µg/mL (≈ 32.8 µM) | 202 µg/mL (≈ 349 µM) | 410 nM | 150 nM | –
4 | CN1CCN(c2nc3c(c(Nc4ccc(C(F)(F)F)cc4)n2)CCN(c2ncccc2C(F)(F)F)CC3)CC1 | 193 µg/mL (≈ 350 µM) | > 221 µg/mL | 506 nM | – | –
5 | CN(C)[C@@H]1CCN(c2nc3c(c(Nc4ccc(C(F)(F)F)cc4)n2)CCN(c2ncccc2C(F)(F)F)CC3)C1 | 57 µg/mL (≈ 101 µM) | > 226 µg/mL | 1040 nM | 243 nM | –
6 | FC(F)(F)c1ccc(Nc2nc(NCc3ccccn3)nc3c2CCN(c2ncccc2C(F)(F)F)CC3)cc1 | 1 µg/mL (≈ 1.79 µM) | 224 µg/mL (≈ 400 µM) | 1340 nM | 476 nM | –
7 | CCC(CC)N1CCN(c2nc3c(c(Nc4ccc(C(F)(F)F)cc4)n2)CCN(c2ncccc2C(F)(F)F)CC3)CC1 | 109 µg/mL (≈ 179 µM) | 243 µg/mL (≈ 400 µM) | 185 nM | 41 nM | –
8 | CCN1CCN(c2nc3c(c(Nc4ccc(C(F)(F)F)cc4)n2)CCN(c2ncccc2C(F)(F)F)CC3)CC1 | 6 µg/mL (≈ 10.6 µM) | > 226 µg/mL | 506 nM | 132 nM | –
9 | CN(C)[C@H]1CCN(c2nc3c(c(Nc4ccc(C(F)(F)F)cc4)n2)CCN(c2ncccc2C(F)(F)F)CC3)C1 | 57 µg/mL (≈ 101 µM) | > 226 µg/mL | 586 nM | 185 nM | –
10 | FC(F)(F)c1ccc(Nc2nc(N3CCNCC3)nc3c2CCN(c2ncccc2C(F)(F)F)CC3)cc1 | 158 µg/mL (≈ 294 µM) | 215 µg/mL (≈ 400 µM) | > 5000 nM | – | –
11 | CN(C)CCN(C)c1nc2c(c(Nc3ccc(C(F)(F)F)cc3)n1)CCN(c1ncccc1C(F)(F)F)CC2 | 210 µg/mL (≈ 379 µM) | > 221 µg/mL | 4450 nM | 2670 nM | –
12 | FC(F)(F)c1ccc(Nc2nc(N3CCN(C4CCCC4)CC3)nc3c2CCN(c2ncccc2C(F)(F)F)CC3)cc1 | 11 µg/mL (≈ 18.2 µM) | 221 µg/mL (≈ 365 µM) | 123 nM | 15 nM | –
13 | NC1CCN(c2nc3c(c(Nc4ccc(C(F)(F)F)cc4)n2)CCN(c2ncccc2C(F)(F)F)CC3)C1 (stereo not drawn) | > 215 µg/mL | > 215 µg/mL | > 5000 nM | 3700 nM | –
14 | FC(F)(F)c1ccc(Nc2nc(N3CCOCC3)nc3c2CCN(c2ncccc2C(F)(F)F)CC3)cc1 | – | – | – | – | clearance [19]: 51.7 mL/min/kg
15 | CC(=O)N(C)C1CCN(c2nc3c(c(Nc4ccc(C(F)(F)F)cc4)n2)CCN(c2ncccc2C(F)(F)F)CC3)C1 (stereo not drawn) | 2 µg/mL (≈ 3.37 µM) | 21 µg/mL (≈ 35.4 µM) | 460 nM | 62 nM | –
16 | CN1CCCC(N(C)c2nc3c(c(Nc4ccc(C(F)(F)F)cc4)n2)CCN(c2ncccc2C(F)(F)F)CC3)C1 (stereo not drawn) | > 232 µg/mL | > 232 µg/mL | > 5000 nM | > 5000 nM | –

Row | SMILES | solubility thermodynamic [13] | solubility thermodynamic [14] | IC50 [15] | IC50 [16] | further results
17 | CNC1CCN(c2nc3c(c(Nc4ccc(C(F)(F)F)cc4)n2)CCN(c2ncccc2C(F)(F)F)CC3)C1 (stereo not drawn) | 233 µg/mL (≈ 422 µM) | > 220 µg/mL | > 5000 nM | 2790 nM | –
18 | CN(CC1CCCCN1C)c1nc2c(c(Nc3ccc(C(F)(F)F)cc3)n1)CCN(c1ncccc1C(F)(F)F)CC2 (stereo not drawn) | > 283 µg/mL | > 283 µg/mL | > 5000 nM | 3330 nM | –
19 | CN1CCCCC1CNc1nc2c(c(Nc3ccc(C(F)(F)F)cc3)n1)CCN(c1ncccc1C(F)(F)F)CC2 (stereo not drawn) | 254 µg/mL (≈ 438 µM) | > 277 µg/mL | 2280 nM | 1760 nM | –
20 | CC(C)(C)OC(=O)N1CCCCC1CNc1nc2c(c(Nc3ccc(C(F)(F)F)cc3)n1)CCN(c1ncccc1C(F)(F)F)CC2 (stereo not drawn) | 3 µg/mL (≈ 4.51 µM) | 3 µg/mL (≈ 4.51 µM) | 230 nM | 250 nM | –
21 | COCCN1CCN(c2nc3c(c(Nc4ccc(C(F)(F)F)cc4)n2)CCN(c2ncccc2C(F)(F)F)CC3)CC1 | 6 µg/mL (≈ 10.1 µM) | > 238 µg/mL | 207 nM | 65 nM | –
22 | OCCN1CCN(c2nc3c(c(Nc4ccc(C(F)(F)F)cc4)n2)CCN(c2ncccc2C(F)(F)F)CC3)CC1 | 4 µg/mL (≈ 6.88 µM) | > 233 µg/mL | 1160 nM | 498 nM | –
23 | FC(F)(F)c1ccc(Nc2nc(NC3CCCNC3)nc3c2CCN(c2ncccc2C(F)(F)F)CC3)cc1 (stereo not drawn) | 203 µg/mL (≈ 368 µM) | > 235 µg/mL | > 5000 nM | > 5000 nM | –
24 | CN(C)CCN1CCN(c2nc3c(c(Nc4ccc(C(F)(F)F)cc4)n2)CCN(c2ncccc2C(F)(F)F)CC3)CC1 | > 243 µg/mL | > 243 µg/mL | 2600 nM | 2000 nM | –
25 | CN1CCCC(Nc2nc3c(c(Nc4ccc(C(F)(F)F)cc4)n2)CCN(c2ncccc2C(F)(F)F)CC3)C1 (stereo not drawn) | 226 µg/mL (≈ 400 µM) | 204 µg/mL (≈ 361 µM) | > 5000 nM | 3080 nM | –
26 | FC(F)(F)c1ccc(Nc2nc(N3CCN(C4CCC4)CC3)nc3c2CCN(c2ncccc2C(F)(F)F)CC3)cc1 | 2 µg/mL (≈ 3.38 µM) | > 237 µg/mL | 161 nM | 24 nM | –
27 | CC(C)N1CCN(c2nc3c(c(Nc4ccc(C(F)(F)F)cc4)n2)CCN(c2ncccc2C(F)(F)F)CC3)CC1 | 2 µg/mL (≈ 3.45 µM) | > 232 µg/mL | 386 nM | – | half-life [10]: 1.5 h; Vd [11]: 5.1 L/kg; clearance [12]: 80 mL/min/kg
28 | FC(F)(F)c1ccc(Nc2nc(NCC3CCCCN3)nc3c2CCN(c2ncccc2C(F)(F)F)CC3)cc1 (stereo not drawn) | 237 µg/mL (≈ 419 µM) | > 272 µg/mL | > 5000 nM | 100 nM | –
29 | CN(c1nc2c(c(Nc3ccc(C(F)(F)F)cc3)n1)CCN(c1ncccc1C(F)(F)F)CC2)C1CCCN(C(=O)OC(C)(C)C)C1 (stereo not drawn) | 4 µg/mL (≈ 6.01 µM) | 1 µg/mL (≈ 1.5 µM) | 97 nM | 53 nM | –
30 | FC(F)(F)c1ccc(Nc2nc(N3CCN(C4CC4)CC3)nc3c2CCN(c2ncccc2C(F)(F)F)CC3)cc1 | 9 µg/mL (≈ 15.6 µM) | 230 µg/mL (≈ 398 µM) | 45 nM | 11 nM | half-life [10]: 1.6 h; Vd [11]: 1 L/kg; clearance [12]: 21.7 mL/min/kg
31 | CN(c1nc2c(c(Nc3ccc(C(F)(F)F)cc3)n1)CCN(c1ncccc1C(F)(F)F)CC2)C1CCCNC1 (stereo not drawn) | 211 µg/mL (≈ 373 µM) | > 241 µg/mL | 1540 nM | 3600 nM | –
